What was measured:
[1] = tested on: ICOS-activated Th17 cells; assay: Transcription factor expression (RORγt, cMaf, STAT-3) in ICOS-activated Th17 cells; assay type: cell-based, mouse; conditions: day 8
Description: (§1) Expansion of Th17 cells with Wnt/β-catenin and PI3K inhibitors in vitro: TRP-1 splenocytes were activated with irradiated (10Gy) C57BL/6 splenocytes pulsed with TRP-1 peptide (1 μM) added at a 5:1 ratio in 24-well plates (1 mL media containing 1.5×10^6 cells/well). TRP-1 splenocytes were co-stimulated with soluble ICOS agonist (Clone 398.4A, BioLegend) and polarized toward Th17 phenotype as describe above. For in vitro expansion from day 0 of culture 10 μM Ly294002 (Cayman Chemical) or 10 μM CAL-101 (Selleckchem) and/or 60 μM indomethacin (Sigma-Aldrich) was added. Also dimethylosulfoxide 0.01% (Sigma-Aldrich) was added as a control. Th17 cultures were also supplemented with hrIL-2 (100 IU/mL) and rmIL-23 ([…]; R&D). Medium, including cytokines and inhibitors was refreshed every 2-3 days.
Nuclear and cytoplasmic protein were isolated by lysis using Nuclear and Cytoplasmic Extraction Reagent with Protease&Phosphatase Inhibitor Cocktail (ThermoScientific). Protein concentration was quantified using […] (ThermoScientific) according to the manufacturer's instructions. 10 to 30 μg of total protein was separated on a Mini-PROTEAN TGX, Any kD™ gel, followed by transfer onto PVDF membrane (Bio-Rad). The membranes were blocked with 5% BSA in TBS buffer containing 0.5% Tween20. The membranes were then incubated overnight at 4° C. with the primary antibodies to β-catenin (BD Bioscience), p110δ, Tcf7 (Abcam), RORγt (Affymetrix) phospho-Akt, total-Akt, STAT-3, Histone-3, Lef1 (abcam), and GAPDH (Cell Signaling) at the concentration recommended by manufactures. […] Quantification of optical density performed using Fiji analysis software (NIH).
Surface staining of Th17 cells was performed with anti-CD4-APCCy7, anti-Vβ14-FITC (BD Biosciences) anti-CD62L-APC, anti-CD44-PerCPCy5.5, anti-CCR6-PE, anti-CD69-PECy7, anti-CCR7-PE, anti-CD27-PE, anti-CD28-PerCPCy5.5, anti-ICOS-PE and anti-CD25-PECy7/FITC (BioLegend) and viability stain (Invitrogen) on day 8. […] Data were analyzed with FlowJo software (TreeStar). […]

pmel-1 CD8^+ T cells = assay: pmel-1 CD8+ T cells primed with AKTi or CAL-101 in culture: phenotype and expansion; assay type: cell-based, mouse
Description: (§2) Pmel-1 CD8^+ T cells were prepared from whole splenocytes activated using 1 μM hgp100 peptide+100 IU rhIL-2/mL. Starting 3 hours after initial activation, cells were treated with either DMSO vehicle, AKT inhibitor VIII (AKTi) (Calbiochem), or CAL-101 (Selleckchem) at indicated doses. Cells were supplemented with culture media containing 100 IU rhIL-2/mL and vehicle or drug when expanded. Human Normal Donor Peripheral T cells: Polyclonal CD3^+ T cells were prepared via negative bead selection (Dynal) from peripheral blood lymphocytes and activated using CD3/CD28 beads (Gibco) with 100 IU rhIL-2/mL DMSO vehicle, 1 μM or 10 μM AKTi or CAL-101 throughout culture as indicated. On day 2 of culture, T cells were engineered to be mesothelin specific via lentiviral transduction with an anti-mesothelin chimeric antigen receptor (CAR) which contained a single-chain variable fragment (scFv) fusion protein specific for mesothelin and linked to the T cell receptor ζ (TCRζ) signaling domain and 4-1BB as described previously (Carpenito et al., 2009) (gifts from the June lab).
(§3) Surface staining of Th17 cells was performed with anti-CD4-APCCy7, anti-Vβ14-FITC (BD Biosciences) anti-CD62L-APC, anti-CD44-PerCPCy5.5, anti-CCR6-PE, anti-CD69-PECy7, anti-CCR7-PE, anti-CD27-PE, anti-CD28-PerCPCy5.5, anti-ICOS-PE and anti-CD25-PECy7/FITC (BioLegend) and viability stain (Invitrogen) on day 8. For all intracellular staining of cytokines (anti-IL-17 PerCPCy5.5, anti-IFN-γ-v450, anti-IL-2-FITC, anti-IL-21-APC, anti-IL-22-PE, anti-TNF-α-FITC; BioLegend) and transcription factors (anti-RORγt-APC, anti-cMaf-PerCPCy5.5, anti-STAT-3-PE, anti-FoxP3-FITC/PE, anti-T-bet-v450; eBiosciences), cells were stimulated for 4-5 h with 50 ng/mL PMA and 750 ng/mL ionomycin (Sigma-Aldrich). Additional antibodies used include: CD127-PECy7 clone A019D5, CD25-APCCy7 clone BC96, CD4-APCCy7 OKT4, CD45RO-APC clone UCHL1, CD62L-FITC clone DREG-56, CD8-PerCPCy5.5 clone SKI, TIM3-PE clone F38-2E2 (biolegend); CCR7-PECy7 clone CCR7, CD8-V450 clone RPA-T8, PD1-FITC clone M1H4, (BD Biosciences). Antibodies used for mouse cell analysis: CD127-PE/V450 clone A7R34, CD25-FITC clone 7D4, CD44-PerCPCy5.5/FITC clone IM7, CD69-PECy7 clone HI.2F3, CD8-PerCPCy5.5 clone 53-6.7, CD8-PECy7 clone YTS156.7.7, PD1-PerCPCy5.5 clone 29F.1A12 V[…]13-PE/APC clone MR12-3/MR12-4 (Biolegend), CD4-APCCy7 clone RM4-5, CD62L-APC clone MEL-14, KLRG1-APC/V450 clone 2F1 (BD). After 1 h, Monensin (BioLegend) was added per manufacturer's instructions. After surface staining, intracellular staining for cytokines and transcription factors was performed using Fixation and Permeabilization buffers (BioLegend) and Foxp3 Staining Buffers (eBioscience), respectively. Flow cytometry acquisition was performed on a FACSVerse or Accuri (BD Bioscience). Data were analyzed with FlowJo software (TreeStar). For experiments with sorted cells, CD8^+Vb13^+ T cells were sorted from pmel-1 cultures using Dynabeads untouched mouse CD8^+ T cell kit (Invitrogen) and a FACSAria cell sorting machine (BD Biosciences).

human CD3^+ T cells = assay: Human CD3+ T cells expanded with CD3/CD28 beads under CAL-101 or AKTi; assay type: cell-based
Description: as §2, §3

human T cells [2] = assay: RNA sequencing of CAL-101 or AKTi treated human T cells; assay type: cell-based; conditions: vs vehicle
Description: Library preparation: mRNA libraries were prepared in triplicate from each donor using the TruSeq RNA V2 kit(Illumina). Cleaved RNA fragments were copied into first strand cDNA then underwent second strand cDNA synthesis. End repair of cDNA fragments, single ‘A’ base addition and ligation to the adapter followed. The product was then purified and enriched with PCR to create the final cDNA library. Transcriptome sequencing: cDNA libraries were clonally clustered onto the sequencing flow cell using the c-BOT (Illumina) Cluster Generation Station and Hiseq Rapid Paired-End Cluster Kit v2 (Illumina). Clustered flow cells were sequenced on the Illumina HiSeq2500 Sequencing System using the Hiseq Rapid SBS Kit V2 (Illumina). Analysis: Differential gene expression analysis contrasting the factors representing different treatment protocols (CAL101 vs Vehicle; or AKTi vs Vehicle) was performed by running kallisto on the raw paired-end RNA sequencing data (in FASTQ format) to estimate transcript-level read counts based on Ensembl GRCh37 cDNA assembly for each sample (NCBI GEO database Accession Number: GSE101497). Estimated transcript-level counts were aggregated across official gene symbols using the tximport package with mapping provided by the biomaRt utility. […]

human T cells [3] = assay: Western blot of nuclear β-catenin, Lef1, Tcf7 in human T cells; assay type: cell-based
Description: (§4) Nuclear and cytoplasmic protein were isolated by lysis using Nuclear and Cytoplasmic Extraction Reagent with Protease&Phosphatase Inhibitor Cocktail (ThermoScientific). Protein concentration was quantified using […] (ThermoScientific) according to the manufacturer's instructions. 10 to 30 μg of total protein was separated on a Mini-PROTEAN TGX, Any kD™ gel, followed by transfer onto PVDF membrane (Bio-Rad). The membranes were blocked with 5% BSA in TBS buffer containing 0.5% Tween20. The membranes were then incubated overnight at 4° C. with the primary antibodies to β-catenin (BD Bioscience), p110δ, Tcf7 (Abcam), RORγt (Affymetrix) phospho-Akt, total-Akt, STAT-3, Histone-3, Lef1 (abcam), and GAPDH (Cell Signaling) at the concentration recommended by manufactures. Subsequently, membranes were washed and incubated for 1 h at room temperature with (HRP)-conjugated goat antibodies to mouse or rabbit IgG (Cell Signaling). For detection of protein, chemiluminescence method was performed using Western ECL Blotting Substrate (Bio-Rad) followed by X-ray film-based imaging method (ThermoScientific). Quantification of optical density performed using Fiji analysis software (NIH).

[4] = tested on: ICOS-activated Th17 cells; assay: Cytokine production of ICOS-stimulated TRP-1 Th17 cells expanded with inhibitors (intracellular FACS); assay type: cell-based, mouse
Description: as §1, §3

[5] = tested on: ICOS-activated Th17 cells; assay: Memory and regulatory phenotype of ICOS-stimulated Th17 cells expanded with inhibitors (flow cytometry); assay type: cell-based, mouse
Description: as §1
Surface staining of Th17 cells was performed with anti-CD4-APCCy7, anti-Vβ14-FITC (BD Biosciences) anti-CD62L-APC, anti-CD44-PerCPCy5.5, anti-CCR6-PE, anti-CD69-PECy7, anti-CCR7-PE, anti-CD27-PE, anti-CD28-PerCPCy5.5, anti-ICOS-PE and anti-CD25-PECy7/FITC (BioLegend) and viability stain (Invitrogen) on day 8. For all intracellular staining of cytokines (anti-IL-17 PerCPCy5.5, anti-IFN-γ-v450, anti-IL-2-FITC, anti-IL-21-APC, anti-IL-22-PE, anti-TNF-α-FITC; BioLegend) and transcription factors (anti-RORγt-APC, anti-cMaf-PerCPCy5.5, anti-STAT-3-PE, anti-FoxP3-FITC/PE, anti-T-bet-v450; eBiosciences), cells were stimulated for 4-5 h with 50 ng/mL PMA and 750 ng/mL ionomycin (Sigma-Aldrich). Additional antibodies used include: CD127-PECy7 clone A019D5, CD25-APCCy7 clone BC96, CD4-APCCy7 OKT4, CD45RO-APC clone UCHL1, CD62L-FITC clone DREG-56, CD8-PerCPCy5.5 clone SKI, TIM3-PE clone F38-2E2 (biolegend); CCR7-PECy7 clone CCR7, CD8-V450 clone RPA-T8, PD1-FITC clone M1H4, (BD Biosciences). […] Data were analyzed with FlowJo software (TreeStar). […]

Wnt/β-catenin pathway = Wnt/β-catenin pathway expression in Th17 cells (Western blot, real-time PCR); assay type: cell-based, mouse; conditions: re-stimulation in vitro; compared to control Th17 cells
Description: Total RNA isolation was performed using the Trizol method (Life Technologies) according to the manufacturer's procedure. RNA quantity and purity was assessed using a NanoDrop ND-1000. 1 μg total RNA was transcribed with Transcriptor First Strand cDNA Synthesis Kit (Roche). qReal-time PCR was performed on LightCycler480 machine following manufacturer's protocols (Roche). Probes utilized include Rorc, IL-17, Cmaf IL-21, Cpt-1a, Tcf-7, Lef-1, Cnnb1. All probes are commercially available (ABI). Relative gene expression was determined by the comparative CT method (45). β-actin was used as housekeeping gene.
as §4

[6] = 8 days of expansion, CAL-101 10 μM, Indo 60 μM, Ly294002 10 μM, vs un-treated Th17 cells

## CC[C@H](Nc1ncnc2[nH]cnc12)c1nc2cccc(F)c2c(=O)n1-c1ccccc1 [CAL-101]
[1]; control 62.9±4.8%
  cMaf expression: 42.5±3.9%
[1]; control 65.5±9.5%
  RORγt expression: 21.9±8.1%
[1]; control approximately 83%
  STAT-3 expression: 13.8±5.2%
pmel-1 CD8^+ T cells; sort experiment, bulk vehicle 37%
  CD62L+ cells before transfer: 97%

## O=c1[nH]c2ccccc2n1C1CCN(Cc2ccc(-c3nc4cc5[nH]cnc5cc4nc3-c3ccccc3)cc2)CC1 [AKTi]
pmel-1 CD8^+ T cells; 10 μM drug
  logarithmic expansion of mouse pmel-1 CD8+ T cells: neither 10 μM AKTi or 10 μM CAL-101 impaired
pmel-1 CD8^+ T cells; 5 days of culture
  CD69 expression: decreased
pmel-1 CD8^+ T cells; 5 days of culture, vehicle 65%
  cells expressing CD62L: nearly all
pmel-1 CD8^+ T cells; in culture
  CD25 expression: slightly reduced
  CD127 expression: substantially elevated
Human CD3^+ T cells
  CD25 expression: did not impact
  CD45RO levels: similar
Human CD3^+ T cells; 10 μM drug, 8 days
  growth of human T cells: dramatically inhibited growth
Human CD3^+ T cells; over vehicle
  CD62L expression: slightly increased
Human CD3^+ T cells; post-activation, vs untreated T cells
  TIM3 expression: prevented the up-regulation
Human T cells [2]
  effector transcripts Fos, JunB, Gzmb, Ifng: down-regulated
Human T cells [3]
  nuclear Lef1 protein: slightly higher, though not statistically significant
Human T cells [3]; over vehicle
  nuclear Tcf7 protein: did not

## O=c1cc(N2CCOCC2)oc2c(-c3ccccc3)cccc12 [Ly294002, 2-(4-morpholinyl)-8-phenyl-4H-1-benzopyran-4-one]
[4]; [6]
  IFN-γ production: suppress
  IL-17A production: suppress
[4]; compared with the results for CAL-101 or Indo plus CAL-101
  cytokine secretion pattern overall: Similarly results were obtained
[5]; cultured 8 days and upon secondary stimulation in vitro
  FoxP3 and CD25 expression: expressed more FoxP3 and CD25
[5]; day 8 in vitro
  central memory phenotype (CD44^highCD62L^high): also supported generation of TCM17 cells
Wnt/β-catenin pathway
  Tcf7 protein level after re-stimulation: could not replace the CAL-101 effect on Tcf7 overexpression
